Source: patent US20160199469A1, “ONCOLOGY VACCINE” (priority 2013, published 2016)

System: PBMC from individuals with non-small cell lung cancer (NSCLC)
Assay: IFNγ ELISpot after 7 day short-term culture, NSCLC patients (Example 3)
Type: cell-based, human
Settings: FIG. 7; Mann-Whitney unpaired test

Row | Sequence | IFN-γ ELISpot spot intensity in NSCLC patients compared with healthy subjects
1 | RLLQLHITMPFSSPMEAELVRRILSRDAAPLPRPGAVL (listed as Homo sapiens) [P5525_LAGE1] | significantly lower
2 | RGPESRLLEFYLAMPFATPMEAELARRSLAQDAPPLPVPG (listed as Homo sapiens) [P805_NY_ESO1] | significantly lower
3 | SVVGNWQYFFPVIFSKASSSLQLVEGIELMEVDPIGHLYIF (SVVGNWQYFFPVIFSKASSSLQLVFGIELMEVDPIGHLYIF; listed as Homo sapiens) [P550_MAGE3] | significantly lower
4 | QTGTGKTLCYLMPGFIHLVLQPSLKGQRNRPGMLV (listed as Homo sapiens) [P-HAGE] | significantly lower
5 | RAVRSLLRSHYREVLPLATFVRRLGPQGWRLVQRGDPAAFRA (listed as Homo sapiens) [P4020_hTERT] | significantly lower
6 | PARYEFLWGPRALAETSYVKVLEYVIKVSARVRFFFPSLREA (listed as Homo sapiens) [P5400_MAGE1] | significantly lower
7 | YEFLWGPRALVETSYVKVLHHMVKISGGPHISYPPLH (listed as Homo sapiens) [P679_MAGE3] | significantly lower
8 | RTFRREKRAERLTSRVKALFSVLNYERARRPGLLGASVLGLDDI (listed as Homo sapiens) [P4650_hTERT] | significantly lower
9 | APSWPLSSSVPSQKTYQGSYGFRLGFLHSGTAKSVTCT (listed as Homo sapiens) [P103-P53] | significantly lower
10 | HRLREEILAKFLHWLMSVYVVELLRSFFYVTETTFQKNR (listed as Homo sapiens) [P4540_hTERT] | significantly lower
11 | ILESLFRAVITKKVADLVGFLLLKYRAREPVTKAEMLESVIK (listed as Homo sapiens) [P5232_MAGE1] | significantly lower

Same assay, conditions: NSCLC patients (FIGS. 2 and 4)

Row | Sequence | magnitude of response and responder frequency
12 | PDGPGGNAGGPGEAGATGGRGPRGAGAARASGPGGGAP (listed as Homo sapiens) [P750-NYESO, used as a negative control peptide] | amongst the lowest responding peptides

Same assay, conditions: NSCLC patients; percentage of patients with peptide responses of greater than 500 SFC/million; peptide pools 5 μg/peptide/mL

Row | Sequence | responder frequency [%]
13 | MTPGTQSPFFLLLLLTVLTVVTGSGHASSTPGG (listed as Homo sapiens) [P2753_MUC1] | 4.76
14 | AFLSVKKQFEELTLGEFLKLDRERAKNKIAKETNNKKKE (listed as Homo sapiens) [P991_SURVIVIN] | 14.51
15 | RLLQLHITMPFSSPMEAELVRRILSRDAAPLPRPGAVL (listed as Homo sapiens) [P5525_LAGE1] | 31.03
16 | RGPESRLLEFYLAMPFATPMEAELARRSLAQDAPPLPVPG (listed as Homo sapiens) [P805_NY_ESO1] | 34.92
17 | TSSNHSTSPQLSTGVSFFFLSFHISNLQFNSSLEDPST (listed as Homo sapiens) [P3776_MUC1] | 4.76
18 | HREARPALLTSRLRFIPKPDGLRPIVNMDYVVGARTFRREK [P4616_hTERT] | 37.50
19 | PALGSTAPPVHNVTSASGSASGSASTLVHNGTSARATTTPASK (listed as Homo sapiens) [P3698_MUC1] | 14.06
20 | RAVRSLLRSHYREVLPLATFVRRLGPQGWRLVQRGDPAAFRA (listed as Homo sapiens) [P4020_hTERT] | 32.81
21 | VQGYVLIAHNQVRQVPLQRLRIVRGTQLFEDNYALAVL (listed as Homo sapiens) [P1575_HER] | 16.12
22 | LGLSYDGLLGDNQIMPKAGLLIIVLAIIAREGD (listed as Homo sapiens) [P590-MAGE3] | 15.87
23 | PARYEFLWGPRALAETSYVKVLEYVIKVSARVRFFFPSLREA (listed as Homo sapiens) [P5400_MAGE1] | 27.41
24 | YEFLWGPRALVETSYVKVLHHMVKISGGPHISYPPLH (listed as Homo sapiens) [P679_MAGE3] | 28.57
25 | RTFRREKRAERLTSRVKALFSVLNYERARRPGLLGASVLGLDDI (listed as Homo sapiens) [P4650_hTERT] | 38.70
26 | EMFLQIYKQGGFLGLSNIKFRPGSVVVQLTLAFREGTINVH (listed as Homo sapiens) [P3825_MUC1] | 8.06
27 | GENVKIPVAIKVLRENTSPKANKEILDEAYVMAGVGSPYVSRKK (listed as Homo sapiens) [P2238-HER] | 10.00
28 | GAQYRIHTHGVFRGIQDVRRVPGVAPTLVRSASETSEKRPF (listed as Homo sapiens) [P1331_WT1] | 5.08
29 | HRLREEILAKFLHWLMSVYVVELLRSFFYVTETTFQKNR (listed as Homo sapiens) [P4540_hTERT] | 23.43
30 | EFQAALSRKVAELVHFLLLKYRAREPVTKAEMLG (listed as Homo sapiens) [P513_MAGE3] | 18.46
31 | ILESLFRAVITKKVADLVGFLLLKYRAREPVTKAEMLESVIK (listed as Homo sapiens) [P5232_MAGE1] | 32.25
32 | PDGPGGNAGGPGEAGATGGRGPRGAGAARASGPGGGAP (listed as Homo sapiens) [P750-NYESO, used as a negative control peptide] | 3.12

Same assay, conditions: NSCLC patients; percentage of patients with peptide responses of greater than 500 SFC/million; peptide pools 5 μg/peptide/mL; listed as P4862_hTERT

Row | Sequence | responder frequency [%]
33 | AGIRRDGLLLRLVDDFLLVTPHLTHAKTFLRTLVRGVPEYG (listed as Homo sapiens) [P4862_TERT] | 7.93

System: PBMC from NSCLC subjects
Assay: Intracellular cytokine staining (ICS) of CD4+ and CD8+ T cells after short-term culture
Type: cell-based, human
Settings: intracellular cytokine staining, FIGS. 8, 9 and 10
Description: PBMC were cultured in 2 mL culture medium (CM, RPMI1640 Glutamax supplemented with 5% untreated human AB serum (PAA) and gentamicin) in 24 well cell culture plates at a concentration of 1×10^6 cells/mL for a total of 7 days. Each pool was added at 20 μg/mL total peptide final concentration. On day 1, IL-7 (Peprotech) and IL-2 (R&D Systems) were added to the cultures to a final concentration of 5 ng/mL and 10 IU/mL respectively. On day 3, IL-2 was added at a concentration of 10 IU/mL. On day 7, cells were harvested from cell culture plates washed with culture medium and counted using TruCount (BD Biosciences) before analysis using IFNγ (interferon gamma) ELISpot assay or intracellular cytokine staining (ICS) as described below.
Short term culture of PBMC were prepared as described above, except culture conditions 1 and 2 were replaced with alternative culture conditions 1 to 5 below, each of which involves stimulation with a different combination of peptide pools:
Culture 5: P-P805_NY_ESO1
Cells from the short-term cultures were plated in a 96 well round bottom plate at 5×10^5 PBMC/well stimulated with individual peptide pools used at a concentration of 5 μg/peptide/mL. Plates were incubated at 37° C. in a 5% CO2 incubator for 20h. PMA/Ionomycin was added to respective wells and Golgi plug (BD Biosciences) was added to all wells after the first 3h of the assay. The cells were harvested and washed with PBS+0.1% BSA (wash buffer) and stained with anti-CD3, anti-CD4 and anti-CD8 (BD Biosciences) for 30 minutes at 4° C. After another wash, the cells were fixed and permeabilised with 100 μL of Cytofix/Cytoperm solution (BD Biosciences) for 20 minutes at 4° C., followed by two washes with 1× Perm/Wash solution (BD Biosciences). Finally, cells were stained with ant-IL-2-FITC, anti-IFNγ-PE and anti-TNFα PerCP-Cy5.5 (BD Biosciences) for 30 minutes at 4° C. Samples were acquired on a FACSCanto II flow cytometer (BD Biosciences). Gating was based on isotype control antibody staining and media stimulated samples for each subject.

Row | Sequence | Th1 cytokine-producing CD4 and/or CD8 T cell responses
34 | RLLQLHITMPFSSPMEAELVRRILSRDAAPLPRPGAVL (listed as Homo sapiens) [P5525_LAGE1] | ability to promote Th1 cytokine-producing CD4 and/or CD8 T cell responses
35 | RGPESRLLEFYLAMPFATPMEAELARRSLAQDAPPLPVPG (listed as Homo sapiens) [P805_NY_ESO1] | ability to promote Th1 cytokine-producing CD4 and/or CD8 T cell responses
36 | SVVGNWQYFFPVIFSKASSSLQLVEGIELMEVDPIGHLYIF (SVVGNWQYFFPVIFSKASSSLQLVFGIELMEVDPIGHLYIF; listed as Homo sapiens) [P550_MAGE3] | ability to promote Th1 cytokine-producing CD4 and/or CD8 T cell responses
37 | HREARPALLTSRLRFIPKPDGLRPIVNMDYVVGARTFRREK [P4616_hTERT] | ability to promote Th1 cytokine-producing CD4 and/or CD8 T cell responses
38 | QTGTGKTLCYLMPGFIHLVLQPSLKGQRNRPGMLV (listed as Homo sapiens) [P-HAGE] | ability to promote Th1 cytokine-producing CD4 and/or CD8 T cell responses
39 | RAVRSLLRSHYREVLPLATFVRRLGPQGWRLVQRGDPAAFRA (listed as Homo sapiens) [P4020_hTERT] | ability to promote Th1 cytokine-producing CD4 and/or CD8 T cell responses
40 | PARYEFLWGPRALAETSYVKVLEYVIKVSARVRFFFPSLREA (listed as Homo sapiens) [P5400_MAGE1] | ability to promote Th1 cytokine-producing CD4 and/or CD8 T cell responses
41 | YEFLWGPRALVETSYVKVLHHMVKISGGPHISYPPLH (listed as Homo sapiens) [P679_MAGE3] | ability to promote Th1 cytokine-producing CD4 and/or CD8 T cell responses
42 | RTFRREKRAERLTSRVKALFSVLNYERARRPGLLGASVLGLDDI (listed as Homo sapiens) [P4650_hTERT] | ability to promote Th1 cytokine-producing CD4 and/or CD8 T cell responses
43 | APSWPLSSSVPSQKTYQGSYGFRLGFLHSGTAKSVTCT (listed as Homo sapiens) [P103-P53] | ability to promote Th1 cytokine-producing CD4 and/or CD8 T cell responses
44 | HRLREEILAKFLHWLMSVYVVELLRSFFYVTETTFQKNR (listed as Homo sapiens) [P4540_hTERT] | ability to promote Th1 cytokine-producing CD4 and/or CD8 T cell responses
45 | ILESLFRAVITKKVADLVGFLLLKYRAREPVTKAEMLESVIK (listed as Homo sapiens) [P5232_MAGE1] | ability to promote Th1 cytokine-producing CD4 and/or CD8 T cell responses
46 | TFQKNRLFFYRKSVWSKLQSIGIRQHLKRVQLRELSEAEVR (listed as Homo sapiens) [P4575_hTERT] | ability to promote Th1 cytokine-producing CD4 and/or CD8 T cell responses

Same assay, conditions: short term culture with a combination of peptide pools

Row | Sequence | level of response among the peptides in the mixture
47 | RGPESRLLEFYLAMPFATPMEAELARRSLAQDAPPLPVPG (listed as Homo sapiens) [P805_NY_ESO1] | highest level of response
48 | SVVGNWQYFFPVIFSKASSSLQLVEGIELMEVDPIGHLYIF (SVVGNWQYFFPVIFSKASSSLQLVFGIELMEVDPIGHLYIF; listed as Homo sapiens) [P550_MAGE3] | highest level of response
49 | PARYEFLWGPRALAETSYVKVLEYVIKVSARVRFFFPSLREA (listed as Homo sapiens) [P5400_MAGE1] | highest level of response

System: PBMC from healthy subjects
Assay: Peptide-specific T cell responses by IFN-γ ELISpot after short term culture, healthy subjects (Example 2)
Type: cell-based, human
Settings: positive response = SFC/10^6 PBMC greater than 20, pools of overlapping 18-mer peptides at 5 μg/peptide/mL
Description: Peptide-specific T cell responses were evaluated in peripheral mononuclear cells obtained from healthy subjects. After thawing, PBMC were cultured in 24-well flat bottom plates (or 48-well bottom plates) at a density of 1 million cells per ml in the presence of culture medium (RPMI 1640 Medium, Glutamax™ (Life Technologies) with 5% (v/v) human AB Serum (PAA Laboratories Ltd)) and a pool of peptides (composed of P103-P53, P513_MAGE3, P679_MAGE3, P805_NY_ESO1, P1575_HER, P2238-HER, P3825_MUC1, P3776_MUC1, P4540_hTERT, P4575_hTERT, P5400_MAGE1, P-HAGE) at a total final concentration of 20 μg/mL.
The plates were incubated at 37° C. in a 5% CO2 incubator and on Day 4, recombinant human IL-2 and IL-15 (R&D Systems) were added to each well at final concentrations of 10 IU/ml and 10 ng/mL respectively. On Day 7, PBMC cultures were removed and washed in culture medium and replaced back into wells in culture medium containing 10 IU/mL of IL-2. After overnight resting at 37° C. in a 5% CO2 incubator, cells were removed, counted and assessed for viability. PVDF plates (MSIPS4510, Millipore) were coated with anti-human IFN-γ antibody (R&D systems) and incubated overnight at 4° C. Plates were then washed and incubated with blocking buffer (1% BSA (PAA), 5% sucrose (Fisher), Dulbecco's-PBS (Invitrogen)) for at least 1 hour and finally washed with culture medium before use. […] After 18 hours of culture, plates were washed and incubated with a biotinylated secondary anti-human IFN-γ antibody (R&D systems) followed by streptavidin-AP. Production of IFN-γ was detected using the ELISpot blue colour module (R&D Systems) as per manufacturer's instructions. Plates were scanned and wells were counted using an automated ELISpot plate reading system equipped with spot counting software (Cellular Technology Limited). Results are expressed as Spot Forming Cells (SFC)/10^6 PBMC and background responses represented by IFNγ SFC of PBMC in culture medium alone have been subtracted for each subject. Positive response was defined as number of Spot Forming Cells (SFC)/10^6 PBMC greater than 20.

Row | Sequence | frequency of responding subjects [%]
50 | RGPESRLLEFYLAMPFATPMEAELARRSLAQDAPPLPVPG (listed as Homo sapiens) [P805_NY_ESO1] | 50
51 | TSSNHSTSPQLSTGVSFFFLSFHISNLQFNSSLEDPST (listed as Homo sapiens) [P3776_MUC1] | 100
52 | QTGTGKTLCYLMPGFIHLVLQPSLKGQRNRPGMLV (listed as Homo sapiens) [P-HAGE] | 50
53 | VQGYVLIAHNQVRQVPLQRLRIVRGTQLFEDNYALAVL (listed as Homo sapiens) [P1575_HER] | 100
54 | PARYEFLWGPRALAETSYVKVLEYVIKVSARVRFFFPSLREA (listed as Homo sapiens) [P5400_MAGE1] | 100
55 | YEFLWGPRALVETSYVKVLHHMVKISGGPHISYPPLH (listed as Homo sapiens) [P679_MAGE3] | 80
56 | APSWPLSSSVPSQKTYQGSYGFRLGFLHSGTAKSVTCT (listed as Homo sapiens) [P103-P53] | 100
57 | EMFLQIYKQGGFLGLSNIKFRPGSVVVQLTLAFREGTINVH (listed as Homo sapiens) [P3825_MUC1] | 17
58 | GENVKIPVAIKVLRENTSPKANKEILDEAYVMAGVGSPYVSRKK (listed as Homo sapiens) [P2238-HER] | 83
59 | HRLREEILAKFLHWLMSVYVVELLRSFFYVTETTFQKNR (listed as Homo sapiens) [P4540_hTERT] | 67
60 | EFQAALSRKVAELVHFLLLKYRAREPVTKAEMLG (listed as Homo sapiens) [P513_MAGE3] | 50
61 | TFQKNRLFFYRKSVWSKLQSIGIRQHLKRVQLRELSEAEVR (listed as Homo sapiens) [P4575_hTERT] | 100

System: PBMC from healthy individuals
Assay: IFNγ ELISpot after 7 day short-term culture, healthy individuals (Example 3)
Type: cell-based, human
Settings: healthy subjects (FIGS. 3 and 5)

Row | Sequence | magnitude of response and responder frequency
62 | PDGPGGNAGGPGEAGATGGRGPRGAGAARASGPGGGAP (listed as Homo sapiens) [P750-NYESO, used as a negative control peptide] | amongst the lowest responding peptides
